Measured values as given in article PMC3586934 (Anesthesiology, 2012).
Where two headings read alike, the source gives them in different places.

Legend:
CYP2B6 = conditions: cited from earlier work
Intravenous = conditions: for Cmax / AUC(0-t) / AUC(0-inf): both, human, in vivo; for AUC(0-t): AUC0-96, oral methadone; for AUC(0-inf): AUC0-∞; for AUC(0-inf) / Foral: oral methadone
CYP3A4 = conditions: cited from earlier work
[1] = both, human, in vivo, iv
[2] = cited from earlier work
healthy volunteers = conditions: 6.0 mg intravenous plus 11.0 mg oral methadone HCl
[3] = cited from earlier work; remark: listed apart in the source
P-gp [4] = conditions: cited from earlier work
CYP3A = conditions: human, in vivo; cited from earlier work
P-gp [5] = conditions: rats; cited from earlier work

Structure (SMILES): CCC(=O)C(C[C@H](C)N(C)C)(c1ccccc1)c1ccccc1 [S-methadone]
- Km (CYP2B6): 16 µM
- Cmax (Intravenous; iv, 6 mg): 83 ± 39 ng/mL
- Cmax (Intravenous; po, 11 mg): 30 ± 10 ng/mL
- AUC(0-t) (Intravenous; po, 11 mg, control): 688 ± 169 ng·h/mL
- AUC(0-inf) (Intravenous; po, 11 mg, control): 780 ± 200 ng·h/mL
- AUC(0-t) (Intravenous; po, after indinavir): 685 ± 131 ng·h/mL
- AUC(0-inf) (Intravenous; po, after indinavir): 805 ± 194 ng·h/mL
- Foral (Intravenous; after indinavir): 0.90 ± 0.11
- Foral (Intravenous; control): 0.87 ± 0.10
- Km (CYP3A4): 149 µM
- EH [1]: 0.06 ± 0.02

Structure (SMILES): O=C1Nc2ccc(Cl)cc2[C@@](C#CC2CC2)(C(F)(F)F)O1 [efavirenz]
- methadone clearance, change [2]: doubled

Structure (SMILES): CCC(=O)C(CC(C)N(C)C)(c1ccccc1)c1ccccc1 (stereo not shown) [methadone]
- AUEC0-∞ (healthy volunteers; after indinavir): 96± 56 mm•hr
- Maximum miosis (healthy volunteers; after indinavir): 3.6 ± 1.0 mm
- AUEC0-∞ (healthy volunteers; control): 87 ± 66 mm•hr
- Maximum miosis (healthy volunteers; control): 3.6 ± 1.0 mm
- FG predicted [3]: 0.97
- FG, average in several investigations [3]: 0.96
- EH, average ([3]; intravenous methadone): 0.09
- fhep ([3]; intravenous methadone): 0.76

Structure (SMILES): Cc1c(O)cccc1C(=O)N[C@@H](CSc1ccccc1)[C@H](O)CN1C[C@H]2CCCC[C@H]2C[C@H]1C(=O)NC(C)(C)C [nelfinavir]
- fexofenadine Cmax, change (P-gp [4]): decreased
- inhibition of first-pass CYP3A (CYP3A): > 75%
- inhibition of hepatic CYP3A (CYP3A): 50%

Structure (SMILES): CO[C@H]1/C=C/O[C@@]2(C)Oc3c(C)c(O)c4c(O)c(c(/C=N/N5CCN(C)CC5)c(O)c4c3C2=O)NC(=O)/C(C)=C\C=C\[C@H](C)[C@H](O)[C@@H](C)[C@@H](O)[C@@H](C)[C@H](OC(C)=O)[C@@H]1C [rifampin]
- methadone clearance, change [2]: doubled

Structure (SMILES): CC(C)c1nc(CN(C)C(=O)N[C@H](C(=O)N[C@@H](Cc2ccccc2)C[C@H](O)[C@H](Cc2ccccc2)NC(=O)OCc2cncs2)C(C)C)cs1 [ritonavir]
- methadone clearance, change [2]: doubled

Structure (SMILES): C/C=C/C[C@@H](C)C(=O)[C@H]1C(=O)N[C@@H](C(C)C)C(=O)N(C)CC(=O)N(C)[C@@H](CC(C)C)C(=O)N[C@@H](C(C)C)C(=O)N(C)[C@@H](CC(C)C)C(=O)N[C@@H](C)C(=O)N[C@H](C)C(=O)N(C)[C@@H](CC(C)C)C(=O)N(C)[C@@H](CC(C)C)C(=O)N(C)[C@@H](C(C)C)C(=O)N1C [valspodar]
- oral methadone bioavailability, change (P-gp [5]): increased

Structure (SMILES): C[C@@H](c1ncncc1F)[C@](O)(Cn1cncn1)c1ccc(F)cc1F [voriconazole]
- R-methadone AUC, increase [2]: 47%
- S-methadone AUC, increase [2]: 103%
